Test results from US8163737B2 (Vertex Pharmaceuticals Incorporated, priority 2006, dated 2012).

Molecular target: endogenous CGRP receptor (Homo sapiens, UniProt O60894+Q16602)
Test: CGRP functional antagonism using SK-N-MC-BLA (4C10), β-lactamase transcriptional reporter assay
Assay type: cell-based
Conditions: SK-N-MC (4C10) cells, inhibition of β-lactamase expression in the presence of 200 pM CGRP
Text: Measuring CGRP Functional Antagonism Using SK-N-MC-BLA (4C10):
CGRP functional antagonism was characterized in a cell based transcriptional assay using a recombinant SK-N-MC line. To introduce the transcriptional reporter system, SK-N-MC cell line was transduced with a retroviral vector containing β-lactamase gene downstream of cAMP responsive promoter. The expression of β-lactamase is triggered by cAMP increase that is a downstream event of activation of endogenous CGRP receptor. Single clones were separated using Fluorescent Activated Cell Sorting (FACS) based on CGRP induced β-lactamase activity. β-lactamase activity was measured using a fluorescence energy transfer (FRET) dye, CCF4. […] To evaluate functional antagonist activity of compounds in SK-N-MC (4C10) line, compounds were evaluated for their inhibition of β-lactamase expression in the presence of CGRP.
SK-N-MC (4C10) was cultured in Minimal Essential Media (MEM) (Invitrogen) supplemented with 1 mM non-essential amino acids solution (Invitrogen), 100 units/ml Penicillin-Streptomycin (Invitrogen), 1 mM sodium pyruvate (Invitrogen) and 10% fetal bovine serum. For the β-lactamase assay, low serum, 1% FBS in MEM was used. 30,000 cells were plated into each wells of poly-D-lysine coated 384-well plate (Becton Dickinson) a day prior to the assay. SK-N-MC (4C10) was preincubated with compounds for 30 min before the addition of 200 pM CGRP. The assay was incubated for 3 hours at 37° C. to allow β-lactamase expression. CCF4 dye was added and incubated for 2 hours at room temperature. […] Curve fitting and IC50 calculation were carried about using MOD3.

Sequence of endogenous CGRP receptor (Q16602 23-461): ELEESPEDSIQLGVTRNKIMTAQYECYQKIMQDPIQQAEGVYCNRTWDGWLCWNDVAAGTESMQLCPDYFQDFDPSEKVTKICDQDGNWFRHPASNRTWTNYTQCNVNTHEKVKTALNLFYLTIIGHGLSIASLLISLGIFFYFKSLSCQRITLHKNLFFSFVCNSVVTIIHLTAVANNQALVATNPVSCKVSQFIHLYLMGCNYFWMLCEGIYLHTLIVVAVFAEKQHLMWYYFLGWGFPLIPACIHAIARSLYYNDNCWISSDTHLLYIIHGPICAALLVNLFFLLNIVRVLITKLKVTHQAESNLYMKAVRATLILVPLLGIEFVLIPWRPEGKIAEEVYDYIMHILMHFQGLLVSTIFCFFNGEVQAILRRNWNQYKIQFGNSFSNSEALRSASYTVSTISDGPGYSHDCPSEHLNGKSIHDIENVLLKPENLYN
Sequence of endogenous CGRP receptor (O60894 27-148): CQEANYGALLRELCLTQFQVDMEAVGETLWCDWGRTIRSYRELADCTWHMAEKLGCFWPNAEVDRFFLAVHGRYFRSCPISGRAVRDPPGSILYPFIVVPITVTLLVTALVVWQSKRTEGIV

SMILES	IC50 [nM]
COC(=O)[C@@H](CC(C)C)N1C(=O)C(CC(=O)N2CCC(N3Cc4ccccc4NC3=O)CC2)SC1c1ccccc1 (stereo partly drawn) [Compound 178]	1000 to 5000
CC(C)(C)CCN1C(=O)[C@H](CC(=O)N2CCC(N3Cc4ccccc4NC3=O)CC2)SC1c1cccc(F)c1N1CCC(N)C1 (stereo partly drawn) [Compound 467]	1000 to 5000
CC(C)(C)CCN1C(=O)C(CC(=O)N2CCC(n3c(=O)[nH]c4ccccc43)CC2)SC12c1ccccc1-c1ccccc12 (stereo not drawn) [Compound 311]	1000 to 5000
CC(C)CCN1C(=O)C(CC(=O)N2CCC(N3CCc4ccccc4NC3=O)CC2)SC1CCc1ccccc1 (stereo not drawn) [Compound 262]	1000 to 5000
CC(C)CCN1C(=O)C(CC(=O)N2CCC(N3Cc4ccccc4NC3=O)CC2)SC12C=CC(C)(C)CC2 (stereo not drawn) [Compound 241]	1000 to 5000
CC(C)CCN1C(=O)C(CC(=O)N2CCC(n3cc(-c4ccccc4)[nH]c3=O)CC2)SC1c1ccc(Cl)cc1 (stereo not drawn) [Compound 112]	> 5000
CC(C)CCN1C(=O)C(CC(=O)N2CCC(N3Cc4ccccc4NC3=O)CC2)SC1c1ccc(C(C)(C)C)cc1 (stereo not drawn) [Compound 197]	> 5000
CC(C)CCN1C(=O)C(CC(=O)N2CCC(N3CCc4ccccc4NC3=O)CC2)SC1C1CCOCC1 (stereo not drawn) [Compound 258]	1000 to 5000
CN1CCN(c2cc(F)ccc2C2SC(CC(=O)N3CCC(N4CCc5ccccc5NC4=O)CC3)C(=O)N2CCC(C)(C)C)CC1 (stereo not drawn) [Compound 361]	1000 to 5000
CN1CCN(c2cc(F)ccc2C2SC(CC(=O)N3CCC(N4Cc5ccccc5NC4=O)CC3)C(=O)N2CCC(C)(C)C)CC1 (stereo not drawn) [Compound 360]	< 1000
CC(C)CCN1C(=O)C(CC(=O)N2CCC(N3Cc4ccccc4NC3=O)CC2)SC1C1CCOCC1 (stereo not drawn) [Compound 201]	1000 to 5000
CC(=O)C1(c2ccccc2)CCN(C(=O)CC2SC(c3ccccc3)N(CCC(C)C)C2=O)CC1 (stereo not drawn) [Compound 141]	> 5000
CC(C)CCN1C(=O)C(CC(=O)N2CCC(N3CCc4ccccc4NC3=O)CC2)SC1c1ccccc1N1CCCCC1 (stereo not drawn) [Compound 215]	< 1000
CC(C)CCN1C(=O)C(CC(=O)N2CCC(N3Cc4ccccc4NC3=O)CC2)SC1c1c(F)cccc1Cl (stereo not drawn) [Compound 166]	< 1000
CC(C)(C)CCN1C(=O)C(CC(=O)N2CCC(N3CCc4ccccc4NC3=O)CC2)SC12CCCCCC2 (stereo not drawn) [Compound 57]	< 1000
CN1CCN(c2ccccc2C2SC(CC(=O)N3CCC(N4CCc5ccccc5NC4=O)CC3)C(=O)N2CC(C)(C)C)CC1 (stereo not drawn) [Compound 410]	< 1000
O=C(CC1SC(C2CCCCC2)N(c2ccccc2)C1=O)N1CCC(n2c(=O)[nH]c3ncccc32)CC1 (stereo not drawn) [Compound 424]	< 1000

Second part, the compound after the results:

IC50 [nM]	SMILES
< 1000	CN(C)CCCN(C)c1ccccc1C1SC(CC(=O)N2CCC(n3c(=O)[nH]c4ncccc43)CC2)C(=O)N1CCC(C)(C)C (stereo not drawn) [Compound 382]
< 1000	CC(C)(C)CCN1C(=O)C(CC(=O)N2CCC(N3CCc4ccccc4NC3=O)CC2)SC12CCc1ccccc12 (stereo not drawn) [Compound 318]
< 1000	CC(C)(C)CCN1C(=O)C(CC(=O)N2CCC(N3CCc4ccccc4NC3=O)CC2)SC1c1c(F)cccc1F (stereo not drawn) [Compound 217]
< 1000	CC(C)(C)CCN1C(=O)[C@H](CC(=O)N2CCC(N3CCc4ccccc4NC3=O)CC2)SC1c1cccc(F)c1N1CCC(N2CCCCC2)CC1 (stereo partly drawn) [Compound 439]
< 1000	CN1CCN(c2ccccc2C2SC(CC(=O)N3CCC(n4cc(-c5ccccc5)[nH]c4=O)CC3)C(=O)N2CCC(C)(C)C)CC1 (stereo not drawn) [Compound 257]
< 1000	CC(C)CCN1C(=O)C(CC(=O)N2CCC(N3CCc4ccccc4NC3=O)CC2)SC1c1cc(C(F)(F)F)ccc1F (stereo not drawn) [Compound 13]
< 1000	O=C(CC1SC(c2ccccc2F)N(CC2CCCCC2)C1=O)N1CCC(N2Cc3ccccc3NC2=O)CC1 (stereo not drawn) [Compound 126]
< 1000	CC(C)CCN1C(=O)C(CC(=O)N2CCC(N3CCc4ccccc4NC3=O)CC2)SC12CCCCCC2 (stereo not drawn) [Compound 91]
< 1000	CC(C)(C)CCN1C(=O)C(CC(=O)N2CCC(N3CCc4ccccc4NC3=O)CC2)SC1c1c[nH]cn1 (stereo not drawn) [Compound 313]
< 1000	O=C(CC1SC(C2CCOCC2)N(c2ccc(N3CCOCC3)cc2)C1=O)N1CCC(N2CCc3ccccc3NC2=O)CC1 (stereo not drawn) [Compound 422]
